One assay concerns the target T1, BT3775 (Bacteroides thetaiotaomicron, UniProt Q8A191).
T1 sequence (Q8A191 1-224): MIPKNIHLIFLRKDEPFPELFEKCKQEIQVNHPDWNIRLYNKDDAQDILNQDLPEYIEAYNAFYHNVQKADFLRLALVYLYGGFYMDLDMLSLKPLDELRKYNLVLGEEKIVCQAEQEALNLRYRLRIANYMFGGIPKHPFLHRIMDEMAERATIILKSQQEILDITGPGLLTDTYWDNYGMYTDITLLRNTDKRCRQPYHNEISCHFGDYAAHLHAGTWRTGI
The assay is described as follows: HPAEC, MALDI-TOF, linkage analysis. Format: biochemical. To be noted: 10 mM MnCl2, pH 7.5, 37 °C.

The target in a further assay is T2, BxGH99 (Bacteroides xylanisolvens, UniProt D6D1V7).
T2 sequence (D6D1V7 13-380): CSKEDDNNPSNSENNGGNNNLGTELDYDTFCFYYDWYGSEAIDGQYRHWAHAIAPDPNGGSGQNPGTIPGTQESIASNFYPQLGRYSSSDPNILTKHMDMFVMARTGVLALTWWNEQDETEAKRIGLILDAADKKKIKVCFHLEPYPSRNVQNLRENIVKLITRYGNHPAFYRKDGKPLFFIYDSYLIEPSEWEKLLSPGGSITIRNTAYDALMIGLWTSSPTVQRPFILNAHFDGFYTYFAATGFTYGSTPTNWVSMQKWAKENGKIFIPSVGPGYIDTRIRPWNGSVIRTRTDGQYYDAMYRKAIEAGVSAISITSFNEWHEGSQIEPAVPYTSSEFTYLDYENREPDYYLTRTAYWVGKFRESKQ
The assay is described as follows: X-ray crystal structure. It counts as binding. To be noted: crystal soak about 10 mM.

As for `Nc1nc2c(ncn2[C@@H]2O[C@H](COP(=O)(O)OP(=O)(O)O[C@H]3O[C@H](CO)[C@@H](O)[C@H](O)[C@@H]3O)[C@@H](O)[C@H]2O)c(=O)[nH]1` [GDP-Mannose], at BT3775 (acceptor mannose), the “HPAEC, MALDI-TOF, linkage analysis” value was “using mannose as an acceptor and GDP-α-Man as the donor”.

For `OC[C@H]1CNC[C@@H](O[C@H]2O[C@H](CO)[C@@H](O)[C@H](O)[C@@H]2O)[C@@H]1O` [Man-IFG], the X-ray crystal structure entry at BxGH99 (ternary complex with alpha-1,2-mannobiose) was “ternary with Man-IFG and α-1,2-mannobiose, was achieved by soaking native BxGH99 crystals”.

For `OC[C@H]1OC(O)[C@@H](O)[C@@H](O)[C@@H]1O` (stereo partly shown) [mannose], the “HPAEC, MALDI-TOF, linkage analysis” value at BT3775 (donor GDP-mannose) is “mannobiose produced by BT3775 from mannose”.

For `OC[C@H]1O[C@H](O[C@@H]2C(O)O[C@H](CO)[C@@H](O)[C@@H]2O)[C@@H](O)[C@@H](O)[C@@H]1O` (stereo partly drawn) [α-1,2-mannobiose], the X-ray crystal structure result on BxGH99 (ternary complex with Man-IFG) is “ternary with Man-IFG and α-1,2-mannobiose, was achieved by soaking native BxGH99 crystals”.
